# Legend:
# AnKir1 = target: T1, AnKir1 (Anopheles gambiae, UniProt A0A075M2J8); assay: Tl+ flux assay in T-REx-HEK293 cells expressing AnKir1; format: cell-based; conditions: Tl+ flux; for IC50: Tables S2/S3 and supplemental text, read-out: AnKir1 IC50
# T1 sequence (A0A075M2J8 1-555): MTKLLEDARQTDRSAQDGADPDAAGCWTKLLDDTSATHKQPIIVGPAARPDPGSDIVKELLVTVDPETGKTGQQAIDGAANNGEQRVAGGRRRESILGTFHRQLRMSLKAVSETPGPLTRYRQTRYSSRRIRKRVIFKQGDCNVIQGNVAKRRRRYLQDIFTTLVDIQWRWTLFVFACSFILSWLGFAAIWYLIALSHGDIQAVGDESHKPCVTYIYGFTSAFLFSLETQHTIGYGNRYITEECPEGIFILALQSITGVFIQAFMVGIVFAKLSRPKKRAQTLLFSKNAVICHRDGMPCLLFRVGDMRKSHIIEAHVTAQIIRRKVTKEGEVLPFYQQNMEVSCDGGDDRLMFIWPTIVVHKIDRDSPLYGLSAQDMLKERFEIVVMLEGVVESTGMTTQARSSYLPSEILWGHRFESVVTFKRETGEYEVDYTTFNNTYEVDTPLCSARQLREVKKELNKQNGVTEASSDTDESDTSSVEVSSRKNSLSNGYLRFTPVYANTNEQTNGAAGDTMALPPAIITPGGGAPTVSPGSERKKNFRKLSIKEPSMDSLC
# Description: Tl^+ flux assays were performed essentially as described previously. Briefly, stably transfected T-Rex-HEK-293 cells expressing AnKir1 channels were cultured overnight in 384-well plates (20,000 cells/20 μL/well black-walled, clear-bottomed BD PureCoat amine-coated plates (BD, Bedford, MA) with a plating media containing DMEM, 10% dialyzed FBS and 1 μg/mL tetracycline. Approximately twenty-four hours after cell plating, the cell culture medium was replaced with a dye-loading solution containing assay buffer (Hanks Balanced Salt Solution with 20 mM HEPES, pH 7.3), 0.01% (w/v) Pluronic F-127 (Life Technologies, Carlsbad, CA), and 1.2 μM of the thallium-sensitive dye Thallos-AM (TEFlabs, Austin, TX). Following 1 hr incubation at room temperature, the dye-loading solution was washed from the plates and replaced with 20 μL/well of assay buffer.
# Tl+ flux assay development
# Tl+ flux assays were performed essentiall y as described previousl y (1). Briefl y, stabl y transfect ed T-Rex -HEK- 293- AnKir1 cells were cultured overnight in 384-well plates in media containing DMEM, 10% dial yz ed FBS and 1μg/ m L tetrac ycline to induce channel expression
# (Fig. S1A). The next day, the cell culture medium was replaced with a dye-loading solution containing assay buffer (Hanks Balanced Salt Solution with 20 mM HEPES, pH 7.3), 0.01% (w/v) Pluronic F-127 (Li fe Technologies, Carlsbad, CA), and 1.2 μM of the thallium-sensitive dye Thallos-AM (TEFl abs, Austin, TX). Following 1 hr incubation at room temperature, the d ye-loading solution was washed from the plates and replaced with 20 μ L/well of assa y buffer. The plates were transferred t o a Ham amatsu Functional Drug Screening System 6000 (FDSS6000; Hamamatsu, Tokyo, J apan) where 20 μ L/well of test compounds in assay buffer (as prepared below) were added and allowed to incubate with the cells for 20 min. After the incubation period, a baseline recordi ng was collected at 1 Hz for 10 s (excitation 470 ± 20 nm, emission 540 ± 30 nm) followed by a t hallium stimulus buffer addition (10 μL/well) and data collection for an additional 4 min. The Tl + stimulus buffer contains in (mM) 125 NaHCO3, 1.8 CaSO4, 1 MgSO4, 5 glucose, 12 Tl2SO4, 10 HEPES, pH 7.4. For Tl + flux assays on Kir2.x, Kir4.1 and Kir6.2/SUR1 ex pressing cells, the Tl+ stimulus buffer contained 1.8 mM Tl 2SO4. To ensure the small-molecule vehicle DMSO had no direct effect on An Ki r1-dependent Tl+ flux, the assa y’s tolerance to different doses of DMSO was evaluated (Fig. S1B). The robustness and reproducibility of the assay was determined by comparing Tl+ flux through tetracycline-induced and tetracycline-uninduced cells (Fig. S1C). The Z’ value was calculated as described previously (1 ), using the […]
# Z’ = 1- (3SD p + 3SD n)/ |meanp + meann | where SD is standard deviation, p and n are control and uninduced flux values respectivel y.
# To compare the effect of DMSO on An Kir1-mediated Tl+ flux, a one-way ANOVA was performed with a Tuke y’s multiple comparison test. Prism software (GraphPad Software) was used to generate CRC from Tl+ fl ux ..Half-inhibition concentration (IC50) values were calculated from fits using a four parameter logistic equation.
# High-throughput screeni ng
# The test compounds were transferred to daughter pol yprop ylene 384-well plates (G reiner Bio-One, Monroe, NC) using an Echo555 liquid handler (Labcyte, Sunnyvale, CA), and then diluted into assay buffer to generat e a 2X stock in 0.6% DMSO (0.3% final). For Tl+ flux assays on Kir6.2/SUR1 expressing cells, test compounds were diluted in assay buffer containing diazoxide (250 μM final) to induce channel activation. Concentration- response curves (CRCs) were gener ated b y screening compounds at 3-fold dilution series (1 nM - 30 μM).
# Tl+ flux data were anal yzed as previousl y d escri bed (2, 3) using a combination of Excel (Microsoft Corp, Redmond, WA) with XLfit add-in (IDBS, Guildford, Surre y, UK), Ori ginPro […]
# mosquito Kir1 channels = test system: mosquito Kir1 channels; design: method as in PMID 24959745; conditions: read-out: IC50 against mosquito Kir1 channels in vitro; cited from earlier work
# mosquitoes = test system: mosquitoes; design: method as in PMID 24959745; conditions: cited from earlier work
# An. gambiae G3 strain = test system: An. gambiae G3 strain; design: method as in PMID 26047119; conditions: topical, (95% confidence limits); cited from earlier work
# An. gambiae Akron strain = conditions: topical, (95% confidence limits); cited from earlier work
# honey bee, A. mellifera = assay: Acute topical toxicity to adult honey bees; format: in vivo, Apis mellifera; conditions: bifenthrin positive control, 0.3 μg per bee (0.1 μg/bee) topical, 48 h
# Description: Frames of late-stage honey bee (A. mellifera) pupae were taken from four colonies at The Ohio State University Honey Bee Lab in Wooster, OH and maintained in a dark humid incubator at 34 °C (Darwin Chambers Co., St. Louis, MO, model H024) until adult bees emerged. New adults were brushed from frames daily and placed in wooden screen cages (21 × 14 × 12 cm) provisioned with 1:1 (w/w) sucrose in water.
# Acute toxicity experiments in adult bees were performed as follows. Twenty-four hours after emergence, adult honey bees in cages were anaesthetized with carbon dioxide, divided into groups of approximately 20 bees and placed in plastic-coated paper cups (177 cm^3; UNIQ Paper Yogurt Cup, Frozen Dessert Supplies, Gilbert, AZ) covered with cotton cheesecloth. […] As a positive control, some bees were treated with 3 μl of bifenthrin (0.1 μg/μl); negative controls consisted of bees treated with 3 μl of solvent. Applications were made using a 20 μl micropipette (Fisherbrand Finnpipette F2, Fisher Scientific, Pittsburgh, PA) with disposable plastic tips. After treatment, bees were returned to the paper cups and provided with sugar syrup in punctured 1.5 ml microcentrifuge tubes. […] Bees showing no movement on inspection at 48 h after treatment were scored as dead.
structure (smiles),measurement,setting,value
O=C(Cn1nc(C(F)(F)F)c2c1CCCC2)N1CCOc2ccccc21 [Compound 14],IC50,AnKir1,4.6 µM
O=C(Cn1nc(C(F)(F)F)c2c1CCCC2)N1CCc2ccccc2C1 [Compound 8],loss of potency vs VU041 (AnKir1),AnKir1,~ 7 fold
same,IC50,AnKir1,15 µM
CCC(=O)N1c2ccc(S(=O)(=O)Nc3cccc(OC)c3)cc2CC1C (stereo not drawn) [VU625],IC50,mosquito Kir1 channels,~0.1 µM
same,topical toxicity to mosquitoes,mosquitoes,not topically toxic to mosquitoes
CC1(C)C(C=C(Cl)Cl)C1C(=O)OCc1cccc(Oc2ccccc2)c1 (stereo not drawn) [Permethrin],"ED50, G3 Strain",An. gambiae G3 strain,0.03e-5 (0.02e-5–0.05e-5) μg/mg
same,"ED50, Akron Strain",An. gambiae Akron strain,1.0e-3 (0.8e-4–1.3e-3) μg/mg
"Cc1c(COC(=O)[C@@H]2[C@H](/C=C(\Cl)C(F)(F)F)C2(C)C)cccc1-c1ccccc1 (racemic) [bifenthrin, reference compound]",honey bees dead (mortality),"honey bee, A. mellifera",100%
O=C(CN1CCCc2ccccc21)N1CCCc2ccccc21 [Compound 6],IC50,AnKir1,8 µM

# — article PMC5111108, “An insecticide resistance-breaking mosquitocide targeting inward rectifier potassium channels in vectors of Zika virus and malaria” (Scientific Reports, 2016)
